Measurements: patent US5605895A, “Cephalosporin antibiotics and processes for preparation thereof” (Lucky, Ltd., priority 1993, dated 1997)
Values after ≈ are worked out from the molar mass of the structure shown.

Experiments:
[1] = Pharmacokinetic properties in SD rats; assay type: in vivo; conditions: rat; SD rats (male), intravenous, 20 mg/kg; blood, biological assay (agar well method)
Method: The pharmacokinetic properties of the compound of the present invention were determined using SD rats (.male.) weighing 220 to 340 g. Specifically, the test samples were administered in intravenous route in an amount of 20 mg/kg to 2 to 5 test animals. Blood was taken from femoral vein every hours after the administration and then subjected to a biological assay using agar well method to measure the blood concentration. The results of pharmacokinetic properties calculated from the above blood concentration are described in the following Table 3.

[2] = tested on: S. aureus giorigio; test: Minimum inhibitory concentration, agar dilution; assay type: cell-based; conditions: Staphylococcus aureus, Muller-Hinton agar, 10^7 CFU per ml, 37° C., 20 hours
Method: (§1) The minimum inhibitory concentration was determined by diluting the test compounds according to 2-fold dilution, suspending them in M uller-Hinton agar medium, inoculating the test strains having 10^7 CFU per 1 ml into the medium and then culturing the medium at 37° C. for 20 hours.

[3] = tested on: E. coli 10536; test: Minimum inhibitory concentration, agar dilution; assay type: cell-based; conditions: Escherichia coli; E. coli 10536; Muller-Hinton agar, 10^7 CFU per ml, 37° C., 20 hours; read-out: Minimum Inhibitory Concentration
Method: as §1

[4] = tested on: P. aeruginosa 6065Y; test: Minimum inhibitory concentration, agar dilution; assay type: cell-based; conditions: Pseudomonas aeruginosa, 20 h, read-out: Minimum Inhibitory Concentration
Method: as §1

[5] = tested on: E. coli TEM9 2639E; test: Minimum inhibitory concentration, agar dilution; assay type: cell-based; conditions: Escherichia coli, TEM92639E, 20 h, read-out: Minimum Inhibitory Concentration
Method: as §1

[6] = tested on: K. aerogenes 1976E; test: Minimum inhibitory concentration, agar dilution; assay type: cell-based; conditions: Klebsiella aerogenes, Muller-Hinton agar, 10^7 CFU per ml, 37° C., 20 hours
Method: as §1

[7] = tested on: S. aureus 6538pA; test: Minimum inhibitory concentration, agar dilution; assay type: cell-based; conditions: Staphylococcus aureus, Muller-Hinton agar, 10^7 CFU per ml, 37° C., 20 hours
Method: as §1

[8] = tested on: A. calcoaceticus 15473A; test: Minimum inhibitory concentration, agar dilution; assay type: cell-based; conditions: Acinetobacter calcoaceticus, Muller-Hinton agar, 10^7 CFU per ml, 37° C., 20 hours
Method: as §1

[9] = tested on: P. aeruginosa 10145; test: Minimum inhibitory concentration, agar dilution; assay type: cell-based; conditions: Pseudomonas aeruginosa, Muller-Hinton agar, 10^7 CFU per ml, 37° C., 20 hours
Method: as §1

[10] = tested on: S. typhimurium 14028A; test: Minimum inhibitory concentration, agar dilution; assay type: cell-based; conditions: Salmonella enterica; S. typhimurium 14028A; Muller-Hinton agar, 10^7 CFU per ml, 37° C., 20 hours; read-out: Minimum Inhibitory Concentration
Method: as §1

[11] = tested on: E. cloacae 1194E; test: Minimum inhibitory concentration, agar dilution; assay type: cell-based; conditions: Enterobacter cloacae, 1194E, 20 h, read-out: Minimum Inhibitory Concentration
Method: as §1

[12] = tested on: E. coli TEM5 3739E; test: Minimum inhibitory concentration, agar dilution; assay type: cell-based; conditions: Escherichia coli, TEM53739E, 20 h, read-out: Minimum Inhibitory Concentration
Method: as §1

[13] = tested on: P. aeruginosa 1912E; test: Minimum inhibitory concentration, agar dilution; assay type: cell-based; conditions: Pseudomonas aeruginosa, 20 h, read-out: Minimum Inhibitory Concentration
Method: as §1

[14] = tested on: S. faecalis 29212A; test: Minimum inhibitory concentration, agar dilution; assay type: cell-based; conditions: Enterococcus faecalis; S. faecalis 29212A; Muller-Hinton agar, 10^7 CFU per ml, 37° C., 20 hours; read-out: Minimum Inhibitory Concentration
Method: as §1

[15] = tested on: E. coli 3190Y; test: Minimum inhibitory concentration, agar dilution; assay type: cell-based; conditions: Escherichia coli; E. coli 3190Y; Muller-Hinton agar, 10^7 CFU per ml, 37° C., 20 hours; read-out: Minimum Inhibitory Concentration
Method: as §1

[16] = tested on: S. marcescens 1826E; test: Minimum inhibitory concentration, agar dilution; assay type: cell-based; conditions: Serratia marcescens, Muller-Hinton agar, 10^7 CFU per ml, 37° C., 20 hours
Method: as §1

[17] = tested on: E. coli TEM1 1193E; test: Minimum inhibitory concentration, agar dilution; assay type: cell-based; conditions: Escherichia coli, TEM11193E, 20 h, read-out: Minimum Inhibitory Concentration
Method: as §1

Q: With `Cn1cc[n+]2c(SCC3=C(C(=O)[O-])N4C(=O)C(NC(=O)C(=NOC(C(=O)O)c5ccc(O)c(O)c5)c5csc(N)n5)C4SC3)nc(N)cc12` (stereo not drawn) [I-11(a), 7-[(Z)-2-(2-aminothiazol-4-yl)-2-(α-carboxy-3,4-dihydroxybenzyloxyimino)acetamido]-3-(7-amino-1-methyl-1H-imidazo[1,2-c]pyrimidinium-5-yl)-thiomethyl-3-cephem-4-carboxylate] as the compound, how does the AUC [1] read?
A: Its AUC is 47900 ng·h/mL.

Q: And the half-life [1]?
A: The half-life was 1.13 h.

Q: And the MIC [2]?
A: Its MIC is 0.5 µg/mL (≈ 0.687 µM).

Q: And the MIC [3]?
A: Its MIC is ≤ 0.008 µg/mL.

Q: What about the MIC [4] of the same compound?
A: The MIC was 0.5 µg/mL (≈ 0.687 µM).

Q: What about the MIC [5] of the same compound?
A: Its MIC is 1 µg/mL (≈ 1.37 µM).

Q: And the MIC [6]?
A: The MIC was 0.13 µg/mL (≈ 0.179 µM).

Q: What about the MIC [7] of the same compound?
A: Its MIC is 0.5 µg/mL (≈ 0.687 µM).

Q: What about the MIC [8] of the same compound?
A: The MIC was 0.5 µg/mL (≈ 0.687 µM).

Q: What about the MIC [9] of the same compound?
A: The MIC was 0.25 µg/mL (≈ 0.344 µM).

Q: What about the MIC [10] of the same compound?
A: The MIC was 0.016 µg/mL (≈ 0.022 µM).

Q: And the MIC [11]?
A: The MIC was 1 µg/mL (≈ 1.37 µM).

Q: And the MIC [12]?
A: The MIC was 0.25 µg/mL (≈ 0.344 µM).

Q: What about the MIC [13] of the same compound?
A: Its MIC is 0.5 µg/mL (≈ 0.687 µM).

Q: What about the MIC [14] of the same compound?
A: The MIC was 8 µg/mL (≈ 11 µM).

Q: And the MIC [15]?
A: Its MIC is 0.031 µg/mL (≈ 0.0426 µM).

Q: What about the MIC [16] of the same compound?
A: Its MIC is 0.25 µg/mL (≈ 0.344 µM).

Q: And the MIC [17]?
A: Its MIC is 0.063 µg/mL (≈ 0.0866 µM).
